Laboratory results reported in US20090325805A1, “Cationic surfactant based adjuvant systems for some herbicides that increase pH, herbicide solubility and performance” (priority 2004, published 2009).

Columns and labels:
Type in all cases: in vivo
Wild Oat (Avena fatua) = test: Post-emergence herbicide efficacy (percent control) on wild oats with differing spray adjuvants; details: Sulfosulfuron 0.66 oz/Acre; for Wild Oat % Control 14 DAT: 14 days after treatment; for Wild Oat % Control 28 DAT: 28 days after treatment
From the text: This invention pertains to the unexpected increase in activity seen when sulfosulfuron was applied with a cat-ionic surfactant plus a pH adjustor that increased the pH to a pH of 9-10.5 (Table 1). As opposed to the increase in activity that was predicted to happen when applied with an oil based or non-ionic surfactant with a pH adjustor as taught by Nalewaja et. al. This effect has been seen with both wild oat (Avena fatua) Table 1 and downy brome (Bromus tectorum) Table 2. The increase in activity has been seen with different formulation of tallow amine cat-ionic surfactant and a pH increasing additive (Table 3). [table]

[1] = system: Downy Brome (Bromus tectorum); test: Herbicide efficacy (percent control) on downy brome with differing spray adjuvants (Table 2); parameters: concentration or dose not given beside the values; details: for Downy Brome % Control 21 DAT: 21 days after treatment; for Downy Brome % Control 68 DAT: 68 days after treatment
From the text: (§1) This effect has been seen with both wild oat (Avena fatua) Table 1 and downy brome (Bromus tectorum) Table 2. The increase in activity has been seen with different formulation of tallow amine cat-ionic surfactant and a pH increasing additive (Table 3). [table]

[2] = system: Downy Brome (Bromus tectorum); test: Sulfosulfuron efficacy (percent control) on downy brome with differing tallow amine adjuvant formulations (Table 3); parameters: concentration or dose not given beside the values; details: for Downy Brome % Control 17 DAT: 17 days after treatment; for Downy Brome % Control 87 DAT: 87 days after treatment
From the text: as §1

[3] = adjuvant AQ118 (tallow amine plus aqua ammonia)
[4] = adjuvant Quad 7 (crop oil plus nitrogen fertilizer)
[5] = adjuvant AQ117 (tallow amine plus aqua ammonia)
[6] = adjuvant R-11 (non-ionic surfactant)
[7] = adjuvant AQ103 (tallow amine plus aqua ammonia)
[8] = adjuvant AQ104 (tallow amine plus aqua ammonia)

CCS(=O)(=O)c1nc2ccccn2c1S(=O)(=O)NC(=O)Nc1nc(OC)cc(OC)n1 [Sulfosulfuron]
Wild Oat % Control 14 DAT (Wild Oat (Avena fatua); [3]): 75% | Wild Oat % Control 28 DAT (Wild Oat (Avena fatua); [3]): 98% | Wild Oat % Control 14 DAT (Wild Oat (Avena fatua); [4]): 48% | Wild Oat % Control 28 DAT (Wild Oat (Avena fatua); [4]): 62% | Downy Brome % Control 21 DAT [1, 5]: 78% | Downy Brome % Control 68 DAT [1, 5]: 97% | Downy Brome % Control 21 DAT [1, 6]: 52% | Downy Brome % Control 68 DAT [1, 6]: 62% | Downy Brome % Control 17 DAT [2, 7]: 30% | Downy Brome % Control 87 DAT [2, 7]: 92% | Downy Brome % Control 17 DAT [2, 8]: 30% | Downy Brome % Control 87 DAT [2, 8]: 90% | Downy Brome % Control 17 DAT [2, 6]: 5% | Downy Brome % Control 87 DAT [2, 6]: 77%

CCCOc1nn(C(=O)[N-]S(=O)(=O)c2ccccc2C(=O)OC)c(=O)n1C.[Na+] [Propoxycarbazone, Propoxycarbazone-sodium]
Downy Brome % Control 21 DAT [1, 5]: 73% | Downy Brome % Control 68 DAT [1, 5]: 90% | Downy Brome % Control 21 DAT [1, 6]: 52% | Downy Brome % Control 68 DAT [1, 6]: 67%
